Test results: patent US20260345582A1, “PRODRUG FOR ANTI-AGING RELATED DISEASES AND USE METHOD THEREOF” (Beijing SunCell Bio-Medical Co., Ltd., priority 2022, published 2026)

Assays:
[1] = tested on: platelets in peripheral blood; test: in vivo platelet toxicity test, single intraperitoneal injection; set-up: species or system C57 mice; settings: FIG. 4A
Excerpt: A. Results of the platelet counts in peripheral blood on days 1, 3, 5, 8, and 10 after a single intraperitoneal injection of different doses of the given drug. Each dot in the panel represents the count of platelets detected in 1 mouse at that time point (n=4 mice); A13 represents the parent compound A1331852 administration group, and A13bGa1 represents the prodrug obtained after the β-gal modification of A13, and mpk represents the milligram dose per kilogram of the body weight. There were three different dose groups of 2, 5, and 20 mg/kg for both A13 and A13bGa1 administration. The dashed line in the panel indicates the mean value of the platelet counts of the mice in the control single vehicle administration group.
In Vivo Platelet Toxicity Test
A single administration of A13 or A13bG was performed. Female 5-6 week old C57 mice were treated with a single intraperitoneal injection. A13 and A13bG were administered in three different dose groups of 2, 5, and 20 mg/kg. Approximately 50 μl of blood was collected from each mouse at different time points into the EDTA tubes (RAM Scientific) by means of inner canthal blood extraction, and analyzed using a haematology analyzer for a blood routine examination and a platelet counting. Multiple administrations of A13 or A13bG were performed. Female 5-6 week old C57 mice were treated with multiple intraperitoneal injections. A13 and A13bG were administered in three different dose groups of 2, 5 and 20 mg/kg, three consecutive days per week, followed by a 4-day withdrawal for 3 weeks. […]
For a blood routine examination, 50 μl of fresh blood was collected from each mouse and immediately mixed with EDTA. Blood samples were analyzed by Celltac Alpha MEK-6400 series haematology analyzer (Nihon Kohden, MEK-6400). Data were expressed as the number of different blood cells or platelets per μl of blood. […] A 200 μl of serum was aliquoted and analyzed for alanine aminotransferase (ALT), aspartate aminotransferase (AST), uric acid (UA), and creatinine (CREA) by a chemistry analyzer (Mindray, BS-350E).

[2] = tested on: mouse model of Bleomycin-induced pulmonary fibrosis; test: Bleomycin-induced pulmonary fibrosis model, overall therapeutic effect; assay type: in vivo, C57 mice; settings: 5 mg/kg i.p., four weeks
Method: A. Modelling of a mouse model of Bleomycin-induced pulmonary fibrosis, and the schematic diagram of treatment. Mice were modelled with Bleomycin administered via tracheal instillation on day 0, and the treatment with intraperitoneal injection of the drug was started on day 4. The drug was administered for 3 consecutive days per week, followed by a 4-day withdrawal, for 4 weeks.
All drugs were mixed in 85% physiological saline, 5% DMSO (Sigma, D8418) and 10% Solutol HS 15 (Sigma, 42966), and administered to mice by intraperitoneal (i.p.) injection. To treat the bleomycin-injured young mice, A13 (2 mg/kg), A13bGa1 (5 mg/kg), or an empty vehicle control was administered three consecutive days per week for four weeks. A1331852 (abbreviated as A13) was purchased from MCE.
Bleomycin-Induced Pulmonary Fibrosis
Bleomycin was purchased from Selleck. As previously reported (Bivas-Benita et al., Eur J Pharm Biopharm 61, 214-218 (2005)), a transtracheal injection of bleomycin (2 mg/kg) was performed to the young male C57 mice (8-10 weeks old) to induce lung fibrosis. Drug treatment was initiated four days after modelling, and the drug was administered three consecutive days per week for four consecutive weeks, after which the mice were executed for material collection.

[3] = plasma metabolic stability, mouse; assay type: in vitro ADME; settings: 120 min
Method: (§1) Plasma Metabolic Stability
(§2) Termination of the reaction was accomplished by the addition of 3× volume of acetonitrile and centrifugation at 16000 g for 20 minutes. The supernatant was taken for a LC-MS/MS analysis. The chromatographic column: Waters XSelect HSS T3; the flow rate: 500 μL/min; the eluent: A, water (0.1% formic acid); B, acetonitrile (0.1% formic acid); the gradient elution: 0-1.5 min, 5% B, 1.5-9 min, 5%-80% B, 9-12 min, 80%-100% B, 12-14 min, 100% B, 14-14.3 min, 100%-5% B, 14.3-15 min, 5% B.

[4] = plasma metabolic stability, all species; assay type: in vitro ADME; settings: human, monkey, canine, rat, and mouse; preliminary test
Method: as §1, §2

[5] = tested on: HELF cells (primary human embryonic lung fibroblast); test: in vitro killing of induced senescent HELF cells (CCK-8); assay type: cell-based; settings: lung-derived, FIG. 3C
Excerpt: Induction of the Cellular Senescence

[6] = single intraperitoneal administration, 2, 5, 20 mg/kg

Cc1c(-c2ccc(N3CCc4cccc(C(=O)Nc5nc6ccccc6s5)c4C3)nc2C(=O)OCc2ccc(O[C@@H]3O[C@H](CO)[C@H](O)[C@H](O)[C@H]3O)c([N+](=O)[O-])c2)cnn1CC12CC3CC(CC(C3)C1)C2 [Compound A13bGa1]
platelet toxicity compared with the parent compound A13 [1, 6]: significantly less toxic to the platelets than the parent compound A13
platelet-destroying effect [1, 6]: strong platelet-destroying effect only at the higher dose of 20 mg/kg
effect on the magnitude of the platelet changes in peripheral blood compared with A13 ([1]; single intraperitoneal administration): significantly less than that of A13
anti-inflammatory and anti-fibrotic therapeutic effects [2]: good anti-inflammatory and anti-fibrotic therapeutic effects
metabolised at 2 h, 10 µM ([3]; 10 μM prodrug, read-out: The peak area after normalisation at minute 120, oxidative dehydrogenation metabolite): 0.04%
remaining at 2 h, 10 µM ([3]; 10 μM, read-out: The peak area after normalisation at minute 120, initial drug): 100%
stability in the plasma [4]: highly stable
killing of the senescent cells, efficiency and selectivity [5]: highly efficient and selective in killing the senescent cells
